Several values for one entry are separate records, joined by “and”; a condition that tells them apart may be missing. Equal values may be shown once.
Tests used:
[1] = acute toxicity, LD50, mouse; conditions: in vivo
[2] = acute toxicity, LD50, rat; conditions: in vivo
[3] = tolerance in different animal species and administration ways; format: in vivo

CC(C)(C)NCC(O)c1cc(Br)no1 (stereo not drawn) [Z 1170, 1-(3-bromo-isoxazol-5-yl)-2-ter.butylaminoethanol]
LD50 ([1]; ip): 230 mg/kg
LD50 ([1]; iv, i.v. (1 ml/100 g/60")): 126 mg/kg and 420 µmol/kg
LD50 ([1]; po, os): 770 mg/kg
LD50 ([2]; iv, i.v. (1 ml/100 g/60")): 196 mg/kg and 650 µmol/kg
LD50 ([2]; po, os): > 2000 mg/kg
tolerance [3]: particularly favorable tolerance
